What was measured:
[1] = test system: Multiple myeloma tumor cells (H929); assay: In vitro cytotoxicity, MTT assay, 48 hours exposure; type: cell-based; details: Homo sapiens, NCI-H929, MTT cell viability
Experimental: Multiple myeloma tumor cells (H929) were used for toxicity studies, and the cells were distributed in microtiter plates and exposed to the compounds tested for 48 hours.

[2] = target: Mcl-1 protein (Homo sapiens, UniProt Q07820); assay: Inhibition of Mcl-1 activity by fluorescence polarization (FP) competition with a fluorescein-labeled ligand; type: binding; details: 10 nM Mcl-1 protein, 10 nM labeled ligand, 2 hours at room temperature
Sequence of Mcl-1 protein (Q07820 whole entry): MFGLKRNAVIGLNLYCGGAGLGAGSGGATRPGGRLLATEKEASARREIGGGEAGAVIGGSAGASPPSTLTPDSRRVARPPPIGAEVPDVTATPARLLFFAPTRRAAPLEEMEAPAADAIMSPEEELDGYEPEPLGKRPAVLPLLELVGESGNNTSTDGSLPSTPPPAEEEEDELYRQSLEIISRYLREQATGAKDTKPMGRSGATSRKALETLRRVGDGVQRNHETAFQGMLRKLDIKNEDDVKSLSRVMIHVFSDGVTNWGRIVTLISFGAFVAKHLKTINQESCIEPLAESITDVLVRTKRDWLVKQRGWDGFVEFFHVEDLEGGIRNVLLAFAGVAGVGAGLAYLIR

| IC50 [2] | SMILES | IC50 [1] |
| --- | --- | --- |
| < 1 nM | Cc1c(-c2c(-c3ccc(F)o3)sc3ncnc(O[C@@H](C(=O)O)C(F)(F)c4ccccc4OCc4ccnn4CC(F)(F)F)c23)ccc(OCCN2CCN(C)CC2)c1Cl [Compound 102] | > 10 nM |
| 1 to 10 nM | Cc1c(-c2c(-c3ccc(F)o3)sc3ncnc(O[C@H](C(=O)O)C(F)(F)c4ccccc4OCc4ccnn4CC(F)(F)F)c23)ccc(OCCN2CCN(C)CC2)c1Cl [Compound 103] | > 10 nM |
| – | Cc1c(-c2c(-c3ccc(F)o3)sc3ncnc(O[C@H](Cc4ccccc4OCc4ccnn4CC(F)(F)F)C(=O)O)c23)ccc(OCCN2CCN(C)CC2)c1Cl [II, reference compound] | > 10 nM |

Reference: US10919908B2, “Thienopyrimidinone derivative and application thereof in preparing anticancer drug” (Henan Genuine Biotech Co., Ltd., priority 2017, dated 2021)
